Reference: patent US9045482B2, “Pyrido[4,3-B]indoles and methods of use” (Medivation Technologies, Inc., priority 2009, dated 2015)

Assays:
[1] = molecular target: T1, human recombinant adrenergic α1D receptor (Homo sapiens, UniProt P25100); test: Adrenergic α1D radioligand binding ([3H]Prozosin)
T1 construct: expressed in transfected cells; host or cells: human embryonic kidney (HEK-293) cells
T1 sequence (P25100 1-572): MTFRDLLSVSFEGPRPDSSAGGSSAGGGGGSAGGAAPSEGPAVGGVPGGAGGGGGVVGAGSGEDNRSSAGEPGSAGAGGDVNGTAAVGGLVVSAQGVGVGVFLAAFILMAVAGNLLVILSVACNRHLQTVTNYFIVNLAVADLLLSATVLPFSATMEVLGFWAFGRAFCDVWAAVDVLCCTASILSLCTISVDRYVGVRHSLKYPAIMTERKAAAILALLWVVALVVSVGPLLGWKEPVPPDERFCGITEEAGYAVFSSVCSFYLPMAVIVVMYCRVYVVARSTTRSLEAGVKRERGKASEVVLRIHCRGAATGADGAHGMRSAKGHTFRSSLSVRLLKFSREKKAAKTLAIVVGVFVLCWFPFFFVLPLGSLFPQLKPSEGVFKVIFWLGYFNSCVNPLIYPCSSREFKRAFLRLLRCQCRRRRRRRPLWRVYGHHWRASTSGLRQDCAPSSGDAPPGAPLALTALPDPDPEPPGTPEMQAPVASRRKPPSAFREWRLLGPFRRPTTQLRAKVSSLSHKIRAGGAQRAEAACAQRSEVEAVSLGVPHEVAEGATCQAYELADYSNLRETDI
Procedure: Compounds of invention were incubated with 0.6 nM [^3H]Prozosin for 60 min at 25° C. Non-specific binding was estimated in the presence of 10 μM phentolamine. Receptor proteins were filtered and washed, the filters were then counted to determine [^3H]Prozosin specifically bound. Compounds were screened at 1 μM or lower, using 1% DMSO as vehicle. Compounds of the invention were tested in this biochemical assay. Biochemical assay results for representative compounds were presented as the percent inhibition of specific binding in Table 3.

[2] = molecular target: T2, rat adrenergic α1B receptor (Rattus norvegicus, UniProt P15823); test: Adrenergic α1B radioligand binding ([3H]Prozosin); parameters: species or system Wistar Rat; conditions: 0.1 μM ligand conc.
T2 construct: rat adrenergic α1B receptor obtained from Wistar Rat liver; from tissue; host or cells: Wistar Rat liver
T2 sequence (P15823 1-515): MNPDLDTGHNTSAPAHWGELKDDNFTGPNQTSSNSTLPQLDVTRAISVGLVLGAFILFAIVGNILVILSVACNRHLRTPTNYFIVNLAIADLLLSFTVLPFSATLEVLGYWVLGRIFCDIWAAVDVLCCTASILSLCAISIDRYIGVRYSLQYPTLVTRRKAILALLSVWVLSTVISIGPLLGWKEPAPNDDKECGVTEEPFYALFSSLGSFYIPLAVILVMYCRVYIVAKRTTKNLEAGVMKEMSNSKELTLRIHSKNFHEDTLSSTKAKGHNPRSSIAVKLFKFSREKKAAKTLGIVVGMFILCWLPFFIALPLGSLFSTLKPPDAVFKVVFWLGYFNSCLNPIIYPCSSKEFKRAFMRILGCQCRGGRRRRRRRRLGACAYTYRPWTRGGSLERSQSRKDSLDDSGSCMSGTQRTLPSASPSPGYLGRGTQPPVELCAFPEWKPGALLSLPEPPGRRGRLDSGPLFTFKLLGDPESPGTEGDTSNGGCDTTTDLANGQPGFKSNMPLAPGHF
Procedure: To evaluate in radioligand binding assays the activity of compounds of the invention, rat adrenergic α1B receptor obtained from Wistar Rat liver [Garcia-S'ainz, J. A. et al., Biochem. Biophys. Res. Commun. (1992), 186:760; Michel, A. D. et al., Br. J. Pharmacol. (1989), 98:883] in a modified Tris-HCl buffer (50 mM Tris-HCl buffer, pH 7.4, 0.5 mM EDTA) was used. Compounds of the invention were incubated with 0.25 nM [^3H]Prozosin for 60 min at 25° C. Non-specific binding was estimated in the presence of 10 μM phentolamine. Receptor proteins were filtered and washed, the filters were then counted to determine [^3H]Prozosin specifically bound. Compounds were screened at 1 μM or lower, using 1% DMSO as vehicle. Compounds of the invention were tested in this biochemical assay. Biochemical assay results for representative compounds were presented as the percent inhibition of specific binding in Table 3.

[3] = molecular target: T3, human recombinant adrenergic α2B receptor (Homo sapiens, UniProt P18089); test: Adrenergic α2B radioligand binding ([3H]Rauwolscine)
T3 construct: expressed in transfected cells; host or cells: Chinese hamster ovary (CHO-K1) cells
T3 sequence (P18089 1-450): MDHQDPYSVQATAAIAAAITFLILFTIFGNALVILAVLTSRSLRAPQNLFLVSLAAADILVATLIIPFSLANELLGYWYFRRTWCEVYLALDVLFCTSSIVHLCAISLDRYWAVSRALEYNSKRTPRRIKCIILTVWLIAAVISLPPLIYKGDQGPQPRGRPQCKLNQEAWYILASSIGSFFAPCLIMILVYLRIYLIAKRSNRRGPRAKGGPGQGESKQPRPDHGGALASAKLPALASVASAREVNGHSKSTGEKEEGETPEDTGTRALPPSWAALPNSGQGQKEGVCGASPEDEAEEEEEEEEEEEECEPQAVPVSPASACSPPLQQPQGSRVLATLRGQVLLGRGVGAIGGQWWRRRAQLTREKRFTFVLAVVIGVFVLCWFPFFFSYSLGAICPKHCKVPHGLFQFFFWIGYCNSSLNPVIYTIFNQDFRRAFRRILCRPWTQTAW
Procedure: To evaluate in radioligand binding assays the activity of compounds of the invention, human recombinant adrenergic α2B receptor expressed in Chinese hamster ovary (CHO-K1) cells [Uhlen, S. et al., Eur. J. Pharmacol. (1998), 343(1):93] in a modified Tris-HCl buffer (50 mM Tris-HCl, pH 7.4, 12.5 mM MgCl2, 1 mM EDTA, 0.2% BSA) was used. Compounds of the invention were incubated with 2.5 nM [^3H]Rauwolscine for 60 min at 25° C. Non-specific binding was estimated in the presence of 10 μM Prozosin. Receptor proteins were filtered and washed, the filters were then counted to determine [^3H]Rauwolscine specifically bound. Compounds were screened at 1 μM or lower, using 1% DMSO as vehicle. Compounds of the invention were tested in this biochemical assay. Biochemical assay results for representative compounds were presented as the percent inhibition of specific binding in Table 3.

SMILES | Percent Inhibition of ligand binding Adrenergic α1D ([1]; 0.1 μM ligand conc.) | Percent Inhibition of ligand binding Adrenergic α1B [2] | Percent Inhibition of ligand binding Adrenergic α2B ([3]; 0.1 μM ligand conc.) | Percent Inhibition of ligand binding Adrenergic α1D ([1]; 1 μM ligand conc.) | Percent Inhibition of ligand binding Adrenergic α2B ([3]; 1 μM ligand conc.)
O=C(Cn1c2c(c3cccnc31)CN1CCCC1C2)N1CCCCC1 (stereo not shown) [Compound 37, 1-(piperidin-1-yl)-2-(8,9,9a,10-tetrahydro-5H-pyrido[3′,2′:4,5]pyrrolo[3,2-f]indolizin-11(7H)-yl)ethanone] | 6% | 9% | 40% |  | 
O=C(Cn1c2c(c3cccnc31)C1CCCN1CC2)N1CCCCC1 (stereo not shown) [Compound 38, 1-(piperidin-1-yl)-2-(2,3,5,6-tetrahydro-1H-pyrido[3′,2′:4,5]pyrrolo[2,3-g]indolizin-7(11cH)-yl)ethanone] | 4% | 8% | 30% |  | 
Fc1ccc(CCn2c3c(c4cc(Cl)ccc42)C2CCCN2CC3)cc1 (stereo not shown) [Compound 1, 7-(4-fluorophenethyl)-10-chloro-2,3,5,6,7,11c-hexahydro-1H-indolizino[7,8-b]indole] |  |  |  | 15% | 55%
Fc1ccc(CCn2c3c(c4cc(Cl)ccc42)CN2CCCC2C3)cc1 (stereo not shown) [Compound 2, 10-(4-fluorophenethyl)-7-chloro-2,3,5,10,11,11a-hexahydro-1H-indolizino[7,6-b]indole] |  |  |  | 23% | 51%
